# Source: BindingDB's records for doi:10.1016/s0968-0896(98)00004-2 (Sankyo, 1998)
# Biological target: T1, Dimer of Gag-Pol polyprotein [489-587] (Human immunodeficiency virus 1, UniProt P12497)
# T1 construct: 489-587
# Assay: Protease Inhibition Assay
# Description: The inhibitory activities of the compounds toward HIV-1 PR were determined by sodium dodecyl sulfate-polyacrylamide gel electrophoresis (SDS-PAGE) assay. The IC50 values of active compounds were determined using the partially purified protease and the synthetic substrate Ac-Ser-Gln-AsnTyr-Pro-Ile-Val-NH2.
row,Compound,IC50 [nM]
1,CC(C)(C)NC(=O)[C@@H]1C[C@H](Cl)CN1C(=O)[C@@H](O)[C@H](Cc1ccccc1)NC(=O)c1ccccc1I,14
2,Cc1cccc(C)c1C(=O)N[C@@H](Cc1ccccc1)[C@H](O)C(=O)N1C[C@@H](Cl)C[C@H]1C(=O)NC(C)(C)C,3.6
3,CC(C)(C)NC(=O)[C@@H]1C[C@H](Cl)CN1C(=O)[C@@H](O)[C@H](Cc1ccccc1)NC(=O)c1ccccc1N,39
4,CC(C)(C)NC(=O)[C@@H]1C[C@H](Cl)CN1C(=O)[C@@H](O)[C@H](Cc1ccccc1)NC(=O)c1cccc(O)c1,9
5,"CC(C)(C)NC(=O)[C@@H]1C[C@H](Cl)CN1C(=O)[C@@H](O)[C@H](Cc1ccccc1)NC(=O)c1ccccc1Cl [2-Chlorobenzoyl-(2S,3S)-AHPBA-4(S)-Cl-Pro-NH-t-Bu]",11
6,"Cc1ccccc1C(=O)N[C@@H](Cc1ccccc1)[C@H](O)C(=O)N1C[C@@H](Cl)C[C@H]1C(=O)NC(C)(C)C [2-Methylbenzoyl-(2S,3S)-AHPBA-4(S)-Cl-Pro-NH-t-Bu]",5.1
7,"CC(C)(C)NC(=O)[C@@H]1C[C@H](Cl)CN1C(=O)[C@@H](O)[C@H](Cc1ccccc1)NC(=O)c1cccc(F)c1 [3-Fluorobenzoyl-(2S,3S)-AHPBA-4(S)-Cl-Pro-NH-t-Bu]",20
8,"CC(C)(C)NC(=O)[C@@H]1C[C@H](Cl)CN1C(=O)[C@@H](O)[C@H](Cc1ccccc1)NC(=O)c1ccc(O)cc1 [4-Hydroxybenzoyl-(2S,3S)-AHPBA-4(S)-Cl-Pro-NH-t-Bu]",33
9,"COc1cccc(C(=O)N[C@@H](Cc2ccccc2)[C@H](O)C(=O)N2C[C@@H](Cl)C[C@H]2C(=O)NC(C)(C)C)c1O [(2-Hydroxy-3-methoxy)benzoyl-(2S,3S) -AHPBA-4(S)-Cl-Pro-NH-t-Bu]",> 1000
10,"CO[C@@H]1OCCC[C@@H]1OC(=O)N[C@@H](Cc1ccccc1)[C@H](O)C(=O)N1C[C@@H](Cl)C[C@H]1C(=O)NC(C)(C)C [(2R,3S)-2-methoxyoxan-3-yl N-[(2S,3S)-4-[(2S,4S)-2-(tert-butylcarbamoyl)-4-chloropyrrolidin-1-yl]-3-hydroxy-4-oxo-1-phenylbutan-2-yl]carbamate]",37
11,"CO[C@H]1OCC=C[C@H]1OC(=O)N[C@@H](Cc1ccccc1)[C@H](O)C(=O)N1C[C@@H](Cl)C[C@H]1C(=O)NC(C)(C)C [(2S,3R)-2-methoxy-3,6-dihydro-2H-pyran-3-yl N-[(2S,3S)-4-[(2S,4S)-2-(tert-butylcarbamoyl)-4-chloropyrrolidin-1-yl]-3-hydroxy-4-oxo-1-phenylbutan-2-yl]carbamate]",35
12,"CC(C)(C)NC(=O)[C@@H]1C[C@H](Cl)CN1C(=O)[C@@H](O)[C@H](Cc1ccccc1)NC(=O)c1cccc(O)c1Br [(2S,4S)-1-[(2S,3S)-3-[(2-bromo-3-hydroxyphenyl)formamido]-2-hydroxy-4-phenylbutanoyl]-N-tert-butyl-4-chloropyrrolidine-2-carboxamide]",1.5
13,"CC(C)(C)NC(=O)[C@@H]1C[C@H](Cl)CN1C(=O)[C@@H](O)[C@H](Cc1ccccc1)NC(=O)c1ccccc1Br [(2S,4S)-1-[(2S,3S)-3-[(2-bromophenyl)formamido]-2-hydroxy-4-phenylbutanoyl]-N-tert-butyl-4-chloropyrrolidine-2-carboxamide]",12
14,"Cc1c(N)cccc1C(=O)N[C@@H](Cc1ccccc1)[C@H](O)C(=O)N1C[C@@H](Cl)C[C@H]1C(=O)NC(C)(C)C [(2S,4S)-1-[(2S,3S)-3-[(3-amino-2-methylphenyl)formamido]-2-hydroxy-4-phenylbutanoyl]-N-tert-butyl-4-chloropyrrolidine-2-carboxamide]",5.4
15,"CC(C)(C)NC(=O)[C@@H]1C[C@H](Cl)CN1C(=O)[C@@H](O)[C@H](Cc1ccccc1)NC(=O)c1cccc2ccccc12 [(2S,4S)-N-tert-butyl-4-chloro-1-[(2S,3S)-2-hydroxy-3-(naphthalen-1-ylformamido)-4-phenylbutanoyl]pyrrolidine-2-carboxamide]",9
16,"CC(C)(C)NC(=O)[C@@H]1C[C@H](Cl)CN1C(=O)[C@@H](O)[C@H](Cc1ccccc1)NC(=O)c1ccccc1O [(2S,4S)-N-tert-butyl-4-chloro-1-[(2S,3S)-2-hydroxy-3-[(2-hydroxyphenyl)formamido]-4-phenylbutanoyl]pyrrolidine-2-carboxamide]",> 1000
17,"Cc1ccc(O)c(C)c1C(=O)N[C@@H](Cc1ccccc1)[C@H](O)C(=O)N1C[C@@H](Cl)C[C@H]1C(=O)NC(C)(C)C [(2S,4S)-N-tert-butyl-4-chloro-1-[(2S,3S)-2-hydroxy-3-[(3-hydroxy-2,6-dimethylphenyl)formamido]-4-phenylbutanoyl]pyrrolidine-2-carboxamide]",2.5

row,Compound,IC50 [nM]
1,"CCCc1c(O)cccc1C(=O)N[C@@H](Cc1ccccc1)[C@H](O)C(=O)N1C[C@@H](Cl)C[C@H]1C(=O)NC(C)(C)C [(2S,4S)-N-tert-butyl-4-chloro-1-[(2S,3S)-2-hydroxy-3-[(3-hydroxy-2-propylphenyl)formamido]-4-phenylbutanoyl]pyrrolidine-2-carboxamide]",1.6
2,"CC(C)(C)NC(=O)[C@@H]1C[C@H](Cl)CN1C(=O)[C@@H](O)[C@H](Cc1ccccc1)NC(=O)c1ccccc1 [(2S,4S)-N-tert-butyl-4-chloro-1-[(2S,3S)-2-hydroxy-4-phenyl-3-(phenylformamido)butanoyl]pyrrolidine-2-carboxamide]",26
3,"CCCc1ccccc1C(=O)N[C@@H](Cc1ccccc1)[C@H](O)C(=O)N1C[C@@H](Cl)C[C@H]1C(=O)NC(C)(C)C [(2S,4S)-N-tert-butyl-4-chloro-1-[(2S,3S)-2-hydroxy-4-phenyl-3-[(2-propylphenyl)formamido]butanoyl]pyrrolidine-2-carboxamide]",29
4,"CCc1c(O)cccc1C(=O)N[C@@H](Cc1ccccc1)[C@H](O)C(=O)N1C[C@@H](Cl)C[C@H]1C(=O)NC(C)(C)C [(2S,4S)-N-tert-butyl-4-chloro-1-[(2S,3S)-3-[(2-ethyl-3-hydroxyphenyl)formamido]-2-hydroxy-4-phenylbutanoyl]pyrrolidine-2-carboxamide]",0.9
5,"Cc1c(F)cccc1C(=O)N[C@@H](Cc1ccccc1)[C@H](O)C(=O)N1C[C@@H](Cl)C[C@H]1C(=O)NC(C)(C)C [(3-Fluoro-2-methyl)benzoyl-(2S,3S)-AHPBA-4(S)-Cl-Pro-NH-t-Bu]",5.6
6,Cc1c(O)cccc1C(=O)N[C@@H](Cc1ccccc1)[C@H](O)C(=O)N1C[C@@H](Cl)C[C@H]1C(=O)NC(C)(C)C [(3-Hydroxy-2-methylbenzoyl)-(2(S)-hydroxy-3(S)-amino-phenylbutanoyl)-4(S)-Cl-Pro-NH-t-Bu],0.8
7,"CC(C)(C)NC(=O)[C@@H]1C[C@H](Cl)CN1C(=O)[C@@H](O)[C@H](Cc1ccccc1)NC(=O)O[C@@H]1CO[C@H]2[C@@H]1OC[C@H]2O [(3R,3aR,6R,6aR)-6-hydroxy-hexahydrofuro[3,2-b]furan-3-yl N-[(2S,3S)-4-[(2S,4S)-2-(tert-butylcarbamoyl)-4-chloropyrrolidin-1-yl]-3-hydroxy-4-oxo-1-phenylbutan-2-yl]carbamate]",25
8,"CC(C)(C)NC(=O)[C@@H]1C[C@H](Cl)CN1C(=O)[C@@H](O)[C@H](Cc1ccccc1)NC(=O)O[C@H]1CCCOC1 [(3S)-oxan-3-yl N-[(2S,3S)-4-[(2S,4S)-2-(tert-butylcarbamoyl)-4-chloropyrrolidin-1-yl]-3-hydroxy-4-oxo-1-phenylbutan-2-yl]carbamate]",14
9,"CC(C)(C)NC(=O)[C@@H]1C[C@H](Cl)CN1C(=O)[C@@H](O)[C@H](Cc1ccccc1)NC(=O)O[C@H]1CCOC1 [(3S)-oxolan-3-yl N-[(2S,3S)-4-[(2S,4S)-2-(tert-butylcarbamoyl)-4-chloropyrrolidin-1-yl]-3-hydroxy-4-oxo-1-phenylbutan-2-yl]carbamate]",5.1
10,"COC1O[C@H]2[C@H](OC(=O)N[C@@H](Cc3ccccc3)[C@H](O)C(=O)N3C[C@@H](Cl)C[C@H]3C(=O)NC(C)(C)C)[C@H](OC)OC[C@H]2O1 (stereo partly drawn) [(3aR,6R,7S,7aR)-2,6-dimethoxy-hexahydro-[1,3]dioxolo[4,5-c]pyran-7-yl N-[(2S,3S)-4-[(2S,4S)-2-(tert-butylcarbamoyl)-4-chloropyrrolidin-1-yl]-3-hydroxy-4-oxo-1-phenylbutan-2-yl]carbamate]",> 1000
11,"CC(C)(C)NC(=O)[C@@H]1C[C@H](Cl)CN1C(=O)[C@@H](O)[C@H](Cc1ccccc1)NC(=O)OC1CCS(=O)(=O)C1 (stereo partly drawn) [[3(R,S) - (1,1 - Dioxo - tetrahydrothiophenyl)oxy]carbonyl-(2S,3S)-AHPBA-4(S)-Cl-Pro-NH-t-Bu]",11
12,"CC(C)(C)NC(=O)[C@@H]1C[C@H](Cl)CN1C(=O)[C@@H](O)[C@H](Cc1ccccc1)NC(=O)OC1CCOC1 (stereo partly drawn) [[3(R,S)-(Tetrahydrofuranyl)oxy]carbonyl-(2S,3S)-AHPBA-4(S)-Cl-Pro-NH-t-Bu]",4.9
13,"CC(C)(C)NC(=O)[C@@H]1C[C@H](Cl)CN1C(=O)[C@@H](O)[C@H](Cc1ccccc1)NC(=O)O[C@H]1C=CCOC1 [[5(R) - (5,6 - Dihydro - 2H-pyranyl)oxy]carbonyl - (2S,3S)-AHPBA-4(S)-Cl-Pro-NH-t-Bu]",4.5
14,"CO[C@@H]1OCC=C[C@@H]1OC(=O)N[C@@H](Cc1ccccc1)[C@H](O)C(=O)N1C[C@@H](Cl)C[C@H]1C(=O)NC(C)(C)C [[5(S)-[6(R)-Methoxy-5,6-dihydro-2H-pyranyl]oxy]carbonyl-(2S,3S)-AHPBA-4(S)-Cl-Pro-NH-t-Bu]",29
15,"CC(C)(C)NC(=O)[C@@H]1C[C@H](Cl)CN1C(=O)[C@@H](O)[C@H](Cc1ccccc1)NC(=O)c1ccc2ccccc2c1 [beta-Naphthoyl-(2S,3S)-AHPBA-4(S)-Cl-Pro-NH-t-Bu]",50
16,"CC(C)(C)NC(=O)[C@@H]1C[C@H](Cl)CN1C(=O)[C@@H](O)[C@H](Cc1ccccc1)NC(=O)OC1CCCC1 [cyclopentyl N-[(2S,3S)-4-[(2S,4S)-2-(tert-butylcarbamoyl)-4-chloropyrrolidin-1-yl]-3-hydroxy-4-oxo-1-phenylbutan-2-yl]carbamate]",19
